The results in this text go back to patent US11499978B2, “Method for measuring quality of therapeutic cell through real-time glutathione measurement” (CELL2IN, INC., priority 2017, dated 2022).

Holding throughout (type): cell-based, human
Test [1] relates to hUC-MSCs. Kind of test: Oxidative stress resistance capacity (ORC) analysis in hUC-MSCs with RSL3. The note with it: hUC-MSCs subcultured three times with AA2G 250 μg/mL; compared with naive cell group (NC). As for the experimental part: GRC refers to a value obtained by real-time monitoring of FR after living cells are treated with an oxidizing agent, as calculated by dividing a value obtained by subtracting AUC of a group treated with 0.1-100 mM N-ethylmaleimide (NEM) from FR AUC of an oxidizing agent (diamide, H2O2, etc.)-treated group by a value obtained by subtracting the AUC of NEM-treated group from AUC of the untreated control, and multiplying the resulting value by 100. The FR of the NEM-treated group is a value for increasing the sensitivity of a GRC value by treating it as the blank value of the FR of the cells of interest. […] To remove the MitoFreSH-Tracer from the medium before measurement, the medium was exchanged with fresh 10 mM HEPES-containing HBSS(Hanks' Balanced Salt Solution), and a fluorescence image was obtained using a confocal imaging system, Operetta. By comparing GSH levels quantified from control cells not treated with RSL3 or control cells before treated with RSL3, the distribution of GSH expression-changed cells was calculated. Based on the point where the distribution histogram is divided into two peaks, the cells were divided into GSH^High cells (right peak) and GSH^Low cells (left peak), and then a ratio of corresponding cells was expressed as a percentage (%). […]

Test [2] relates to hUC-MSCs. Kind of test: SDF1α- and PDGF-AA-induced migration capacity of hUC-MSCs. The note with it: 125 or 250 μg/mL AA2G for three days, n=3. As to the method:
The inventors observed an effect of the material on stem cells by treating each stem cells with a material for enhancing a glutathione evaluation parameter. When hUC-MSCs were subcultured in a L-AA2G-containing medium, CFU-F, migration capacity, and an anti-inflammatory effect were observed. A CFU-F assay (n=3) was performed by treating hUC-MSCs with 125 or 250 μg/mL of AA2G for three days. As shown in FIGS. 16A and 16B, it was confirmed that, when AA2G was treated, CFU-F increased. In addition, as hUC-MSCs were treated with 125 or 250 μg/mL of AA2G for three days, PDGF-AA-induced migration capacity (n=3) was analyzed. As shown in FIGS. 17A and 17B, it was confirmed that the migration capacity was increased by AA2G treatment. In addition, the reduction in T cell proliferation, the reduction in T cell differentiation, and the promotion of Treg cell differentiation were observed by treating hUC-MSCs with 125 or 250 μg/mL of AA2G for three days. […] Meanwhile, hUC-MSCs were cultured with a glutathione precursor such as γ-glutamyl cysteine (GGC, 0.1, 0.25, and 0.5 mM). […] In addition, SDF1α and PDGF-AA-induced migration capacities (n=3) were analyzed for hUC-MSCs without treatment with GGC, and SDF1α and PDGF-AA-induced migration abilities (n=3) were analyzed by treating hUC-MSCs with the increasing concentrations of GGC. […]

Test [3] deals with hUC-MSCs. As to the kind of experiment: CFU-F assay of hUC-MSCs. Particulars: 125 or 250 μg/mL AA2G for three days, n=3. As for the experimental part: The inventors observed an effect of the material on stem cells by treating each stem cells with a material for enhancing a glutathione evaluation parameter. When hUC-MSCs were subcultured in a L-AA2G-containing medium, CFU-F, migration capacity, and an anti-inflammatory effect were observed. A CFU-F assay (n=3) was performed by treating hUC-MSCs with 125 or 250 μg/mL of AA2G for three days. As shown in FIGS. 16A and 16B, it was confirmed that, when AA2G was treated, CFU-F increased. In addition, as hUC-MSCs were treated with 125 or 250 μg/mL of AA2G for three days, PDGF-AA-induced migration capacity (n=3) was analyzed. As shown in FIGS. 17A and 17B, it was confirmed that the migration capacity was increased by AA2G treatment. In addition, the reduction in T cell proliferation, the reduction in T cell differentiation, and the promotion of Treg cell differentiation were observed by treating hUC-MSCs with 125 or 250 μg/mL of AA2G for three days. […] Meanwhile, hUC-MSCs were cultured with a glutathione precursor such as γ-glutamyl cysteine (GGC, 0.1, 0.25, and 0.5 mM). A CFU-F assay (n=3) was performed by treating hUC-MSCs with each concentration of GGC for 2 hours. […] In addition, SDF1α and PDGF-AA-induced migration capacities (n=3) were analyzed for hUC-MSCs without treatment with GGC, and SDF1α and PDGF-AA-induced migration abilities (n=3) were analyzed by treating hUC-MSCs with the increasing concentrations of GGC. STI571 was used as a PDGFR kinase inhibitor. As shown in FIGS. 20A to 20C, it was confirmed that, according to an increase in GGC treatment concentration, SDF1α- and PDGF-AA-induced migration capacities were enhanced. A CFU-F assay (n=3) was performed by treating hUC-MSCs with 0.2, 1, 2, and 4 μM ferrostatin-1 and 0.1, 0.5, 1, and 2 μM liproxstatin-1 for 24 hours.

For the compound `O=C1O[C@H]([C@@H](O)CO)C(O)=C1O[C@H]1O[C@H](CO)[C@@H](O)[C@H](O)[C@H]1O` [AA2G, ascorbic acid 2-glucoside], the “FreSH-Tracer-based ORC (GSH^High cells)” value in test [1] is recorded as “higher”. The PDGF-AA-induced migration capacity result in test [2] is given as “increased”. The CFU-F entry in test [3] is given as “increased”.
